According to the supplement of paper PMC11061612:

Experiments:
[1] = system: COR-L95 (Small Cell Lung Carcinoma); experiment: combination Emax (second highest fraction inhibited in the dose matrix, 72 h); higher = more inhibition; extreme values may be limits of the assay
In short: (§1)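 Bliss excess equals the observed combination effect minus the expected value EA + EB − EA·EB, where EA and EB are the effects of each agent alone. Combination Emax is the second-highest inhibition within the matrix. Inhibition was scaled from CellTiter-Glo 2.0 luminescence, with 0 set by vehicle wells and 1 by blank wells, after 72 hours of two-drug dosing of cells plated in 1536-well plates.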

[2] = system: TGBC24TKB (Biliary Tract Carcinoma); experiment: as above
In short: as §1

| Compound | combination Emax [1] | combination Emax [2] |
| --- | --- | --- |
| CN(CCO)CC[C@H](CSc1ccccc1)Nc1ccc(S(=O)(=O)NC(=O)c2ccc(N3CCC([C@@H](O)c4ccccc4-c4ccc(Cl)cc4)CC3)cc2)cc1S(=O)(=O)C(F)(F)F [AZD4320] + C1CN(CCC1(C(=O)N[C@@H](CCO)C2=CC=C(C=C2)Cl)N)C3=NC=NC4=C3C=CN4 [Capivasertib] (first compound max 1 µM, 7x7, partner max 3 µM) | 1 | 0.687 |
| CN(CCO)CC[C@H](CSc1ccccc1)Nc1ccc(S(=O)(=O)NC(=O)c2ccc(N3CCC([C@@H](O)c4ccccc4-c4ccc(Cl)cc4)CC3)cc2)cc1S(=O)(=O)C(F)(F)F [AZD4320] + C=CCn1c(=O)c2cnc(Nc3ccc(N4CCN(C)CC4)cc3)nc2n1-c1cccc(C(C)(C)O)n1 [AZD1775] (first compound max 1 µM, partner max 1 µM) | 1 | 0.682 |
| CN(CCO)CC[C@H](CSc1ccccc1)Nc1ccc(S(=O)(=O)NC(=O)c2ccc(N3CCC([C@@H](O)c4ccccc4-c4ccc(Cl)cc4)CC3)cc2)cc1S(=O)(=O)C(F)(F)F [AZD4320] + CCN(CCO)CCCOc1ccc2c(Nc3cc(CC(=O)Nc4cccc(F)c4)[nH]n3)ncnc2c1 [AZD2811] (first compound max 1 µM, 7x7, partner max 1 µM) | 1 | 0.822 |
| CN(CCO)CC[C@H](CSc1ccccc1)Nc1ccc(S(=O)(=O)NC(=O)c2ccc(N3CCC([C@@H](O)c4ccccc4-c4ccc(Cl)cc4)CC3)cc2)cc1S(=O)(=O)C(F)(F)F [AZD4320] + CN(C)CCCOc1ccc(-c2ccc3ncc4c(c3c2)n(C2CCOCC2)c(=O)n4C)cn1 [AZD0156] (first compound max 1 µM, 7x7, partner max 1 µM) | 1 | 0.598 |
| CN(CCO)CC[C@H](CSc1ccccc1)Nc1ccc(S(=O)(=O)NC(=O)c2ccc(N3CCC([C@@H](O)c4ccccc4-c4ccc(Cl)cc4)CC3)cc2)cc1S(=O)(=O)C(F)(F)F [AZD4320] + C[C@@H]1COCCN1C2=NC(=NC(=C2)C3(CC3)[S@](=N)(=O)C)C4=C5C=CNC5=NC=C4 [AZD6738] (first compound max 1 µM, 7x7, partner max 10 µM) | 1 | 0.891 |
| CN(CCO)CC[C@H](CSc1ccccc1)Nc1ccc(S(=O)(=O)NC(=O)c2ccc(N3CCC([C@@H](O)c4ccccc4-c4ccc(Cl)cc4)CC3)cc2)cc1S(=O)(=O)C(F)(F)F [AZD4320] + C[C@@H](Nc1cc(F)cc(F)c1)c1cc(C(=O)N(C)C)cc2c(=O)cc(N3CCOCC3)oc12 [AZD8186] (first compound max 1 µM, 7x7, partner max 3 µM) | 1 | 0.544 |
| COc1nnc2ccc(N3CCC(c4ccc(OCCN5CCN(C)C(=O)[C@H]5C)cc4)CC3)nn12 [AZD5153] + CN(CC[C@H](CSC1=CC=CC=C1)NC2=C(C=C(C=C2)S(=O)(=O)NC(=O)C3=CC=C(C=C3)N4CCC(CC4)[C@H](C5=CC=CC=C5C6=CC=C(C=C6)Cl)O)S(=O)(=O)C(F)(F)F)CCO [AZD4320] (first compound max 1 µM, 7x7, partner max 1 µM) |  | 0.932 |
| CC(=O)c1c(C)c2cnc(Nc3ccc(N4CCNCC4)cn3)nc2n(C2CCCC2)c1=O [Palbociclib] + CN(CC[C@H](CSC1=CC=CC=C1)NC2=C(C=C(C=C2)S(=O)(=O)NC(=O)C3=CC=C(C=C3)N4CCC(CC4)[C@H](C5=CC=CC=C5C6=CC=C(C=C6)Cl)O)S(=O)(=O)C(F)(F)F)CCO [AZD4320] (first compound max 10 µM, 7x7, partner max 1 µM) |  | 0.736 |
| C[C@@H](c1ccc2nccn2c1)n1nnc2ncc(-c3cnn(C)c3)nc21 [Savolitinib] + CN(CC[C@H](CSC1=CC=CC=C1)NC2=C(C=C(C=C2)S(=O)(=O)NC(=O)C3=CC=C(C=C3)N4CCC(CC4)[C@H](C5=CC=CC=C5C6=CC=C(C=C6)Cl)O)S(=O)(=O)C(F)(F)F)CCO [AZD4320] (first compound max 1 µM, 7x7, partner max 1 µM) |  | 0.561 |
